Tests used:
[1] = DU-145 prostate tumor xenograft, PEG-docetaxel vs docetaxel; assay type: in vivo, mice; conditions: NCr nu/nu, mouse, in vivo, intravenous; DU-145 study, q7 d×2; read-out: tolerated dose (maximum tolerated dose)
[2] = test system: DU-145 prostate tumors; assay: as above; assay type: in vivo, mice; conditions: DU-145, two doses (q7 d×2)
[3] = in vivo; conditions: NCr nu/nu, mouse
Text: Human NCl-H460 lung tumors (30 to 40 fragments of each) were implanted subcutaneously in the mice (Charles Rivers Labs: NCr nu/nu) near the right axillary area.
The animals were randomized into groups in a manner such that the median tumor weights on the first day of treatment were as close to each other as possible.
The mice received 1 or 2 intravenous doses of test compound or vehicle (saline).
The animals were weighed and the tumors measured twice weekly after administration of the first injection. The tumor volume was measured by caliper measurements (mm) and using the formula of an ellipsoid sphere: L×W^2/2=mm^3, where L and W refer to the larger and smaller perpendicular dimensions collected at each measurement. This formula was also used to calculate tumor weight assuming unit density (1 mm^3=1 mg).
Any animal found moribund or any animal whose tumor reached 4000 mg, ulcerated or was sloughed off was euthanized prior to study termination.

[4] = test system: MCF-7 breast tumor cells; assay: MCF-7 breast tumor xenograft, 4-arm-PEG-gly-irino-20K vs irinotecan; assay type: in vivo, Female athymic (Nu:Nu) mice; conditions: for Days to 4 Times Tumor Size: median; for Tumor Regression Complete / Tumor Regression Partial: n=10
Method: Female athymic (Nu:Nu) mice were injected subcutaneously with MCF-7 breast tumor cells and the tumors were allowed to reach a median volume of 75 mm^3. […] The control group received normal saline. The animals were weighed and tumors were measured twice weekly after administration of the first drug injection.

[5] = test system: Human HT29 colon tumor xenografts; assay: HT29 colon tumor xenograft, anti-tumor activity (Examples 2 and 6); conditions: HT29 colon tumors, 3 doses; for delay in tumor growth (anti-tumor activity) compared to the control: 60 mg/kg IV every 4 days
Method: Human HT29 colon tumor xenografts were subcutaneously implanted in athymic nude mice. After about two weeks of adequate tumor growth (100 to 250 mg), these animals were divided into different groups of ten mice each. […] Doses were administered intravenously, with one dose administered every 4 days for a total of 3 administered doses. The mice were observed daily and the tumors were measured with calipers twice a week.
Athymic nude mice were implanted subcutaneously with human cancer cell lines (lung cancer cell line NCl-H460, and colon cancer cell line HT-29) and the tumors allowed to grow to approximately 150 mg in size. The animals were divided into groups of ten mice each.
Tumor volume measurements were taken over a period of 60-80 days; tumor volumes were converted to tumor weight. Body weights were also measured over the same period to provide an indication of weight loss.

[6] = PK/PD study in HT29 colon tumor model (plasma and tumor AUC, t½); conditions: 40 mg/kg IV q4d x3, Day 1 AUC
[7] = test system: HT29 tumor fragments; assay: HT29 colorectal tumor xenograft, monotherapy study (Example 21); assay type: in vivo; conditions: for Tumor growth delay: HT29, all three doses tested (40, 60, or 90 mg/kg); for tolerability: all doses
Text: HT29 tumor fragments were implanted into female, athymic nude mice in the monotherapy study. […]. Animals were weighed and tumor volumes measured twice weekly after the first drug injection in both studies.

[8] = PK/PD study in NCl-H460 lung tumor model (plasma and tumor AUC, t½); conditions: Day 1 AUC
[9] = Toxicity: maximum tolerated dose and side-effects in rat and dog (FIG. 22); assay type: in vivo
Method: (§1) Additional illustrative in-vivo studies were carried out as described previously herein or in accordance with methods well-known to one having ordinary skill in the art.

[10] = test system: neutrophils; assay: Neutropenia in dogs, 4-arm-PEG-GLY-IRINO-20K vs irinotecan (FIG. 21); assay type: in vivo
Method: as §1

[11] = Plasma levels of SN-38 in dogs (FIG. 24); assay type: in vivo
Method: as §1

[12] = rodents
[13] = Exposure to SN-38 in HT-29 colorectal tumors in mice (FIG. 20); assay type: in vivo
Method: as §1

[14] = Diarrhea episodes in dogs (FIG. 23); assay type: in vivo
Method: as §1

[15] = single dose, following PEG-Irinotecan administration

For `CC(=O)O[C@@]12CO[C@@H]1C[C@H](O)[C@@]1(C)C(=O)[C@H](O)C3=C(C)[C@@H](OC(=O)[C@H](O)[C@@H](NC(=O)OC(C)(C)C)c4ccccc4)C[C@@](O)([C@@H](OC(=O)c4ccccc4)[C@H]21)C3(C)C` [docetaxel], which MTD at 78 day [1] is on record?
Its MTD at 78 day is no more than 30 mg/kg.

What about the “time after which tumors did recover and grow” value [2] of the same compound?
The value was 30 to 50 days.

What about the “anti-tumor effect on tumor growth” value ([2]; all 3 doses tested, 78 day observation period) of the same compound?
The value was “good activity”.

And the MTD [3]?
Its MTD is no more than 30 mg/kg.

With `CCc1c2c(nc3ccc(OC(=O)N4CCC(N5CCCCC5)CC4)cc13)-c1cc3c(c(=O)n1C2)COC(=O)[C@]3(O)CC` [irinotecan, 7-ethyl-10[4-(1-piperidino)-1-piperidino] carbonyloxy CPT, reference compound] as the compound, how does the “Days to 4 Times Tumor Size” value ([4]; 20 mg/kg per dose x3) read?
Its value is 40.2 days.

What about the “Tumor Regression Complete” value ([4]; 20 mg/kg per dose x3) of the same compound?
The value was 0.

And the “Tumor Regression Partial” value ([4]; 20 mg/kg per dose x3)?
Its value is 0.

And the “Median Duration” value ([4]; 40 mg/kg per dose x3)?
Its value is 42.0 days.

What about the “Days to 4 Times Tumor Size” value ([4]; 40 mg/kg per dose x3) of the same compound?
The value was 42.8 days.

What about the “Tumor Regression Complete” value ([4]; 40 mg/kg per dose x3) of the same compound?
Its value is 0.

What about the “Tumor Regression Partial” value ([4]; 40 mg/kg per dose x3) of the same compound?
Its value is 1.

What about the “delay in tumor growth (anti-tumor activity) compared to the control” value [5] of the same compound?
Its value is “significantly improved when compared to the control”.

What about the “Exposure (AUC) of Irinotecan, Plasma” value [6] of the same compound?
The value was 0.3 µg·days/mL.

What about the “Exposure (AUC) of SN38, Plasma” value [6] of the same compound?
The value was 0.01 µg·days/mL.

And the Tumor growth delay ([7]; q4 d×3)?
The Tumor growth delay was 0.3 to 1.6 days.

And the tolerability [7]?
Its tolerability is “well tolerated”.

What about the “Exposure (AUC) of Irinotecan, Plasma” value [8] of the same compound?
Its value is 0.5 µg·days/mL.

What about the “Exposure (AUC) of SN38, Plasma” value [8] of the same compound?
The value was 0.2 µg·days/mL.

Which “T − C” value ([4]; 20 mg/kg per dose x3) does the source give for “Pentaerythritolyl-4-Arm-(PEG-1-Methylene-2Oxo-Vinylamino Acetate Linked-Irinotecan)-20K [4-arm-PEG-GLY-IRINO-20K]” here?
The value was greater than 52 days.

What about the “Days to 4 Times Tumor Size” value ([4]; 20 mg/kg per dose x3) of the same compound?
Its value is greater than 72 days.

And the “Tumor Regression Complete” value ([4]; 20 mg/kg per dose x3)?
Its value is 0.

And the “Tumor Regression Partial” value ([4]; 20 mg/kg per dose x3)?
The value was 0.

What about the “Median Duration” value ([4]; 40 mg/kg per dose x3) of the same compound?
The value was 22.0 days.

What about the “T − C” value ([4]; 40 mg/kg per dose x3) of the same compound?
Its value is greater than 52 days.

And the “Days to 4 Times Tumor Size” value ([4]; 40 mg/kg per dose x3)?
Its value is greater than 72 days.

And the “Tumor Regression Complete” value ([4]; 40 mg/kg per dose x3)?
The value was 0.

And the “Tumor Regression Partial” value ([4]; 40 mg/kg per dose x3)?
The value was 1.

And the “T − C” value ([4]; 60 mg/kg per dose x3)?
Its value is greater than 52 days.

What about the “Days to 4 Times Tumor Size” value ([4]; 60 mg/kg per dose x3) of the same compound?
Its value is greater than 72 days.

And the “Tumor Regression Complete” value ([4]; 60 mg/kg per dose x3)?
Its value is 0.

And the “Tumor Regression Partial” value ([4]; 60 mg/kg per dose x3)?
The value was 0.

What about the “T − C” value ([4]; 90 mg/kg per dose x3) of the same compound?
Its value is greater than 52 days.

And the “Tumor Regression Partial” value ([4]; 90 mg/kg per dose x3, <50% of size observed on Day 1)?
Its value is 1.

What about the “Median Duration” value ([4]; 90 mg/kg per dose x3, interval regressed tumor below 50% pretreatment size) of the same compound?
The value was 49.0 days.

And the “Days to 4 Times Tumor Size” value ([4]; 90 mg/kg per dose x3)?
The value was greater than 72 days.

What about the “Tumor Regression Complete” value ([4]; 90 mg/kg per dose x3, unpalpable) of the same compound?
Its value is 0.

What about the “T-C value compared with irinotecan treatment groups” value ([4]; all 4 dose levels, p<0.001) of the same compound?
The value was “significantly higher”.

What about the tumor regrowth ([4]; any dose level (FIG. 15A)) of the same compound?
The tumor regrowth was “No tumor regrowth occurred”.

And the “maximum tolerated dose (MTD) compared to irinotecan” value ([9]; FIG. 22, rat and dog)?
Its value is “significantly higher”.

And the “occurrence and/or extent and/or severity of side-effects such as neutropenia and diarrhea vs irinotecan” value ([9]; equivalent doses (FIG. 23))?
Its value is “reduced”.

And the “neutropenia compared to irinotecan at an equivalent dose” value [10]?
Its value is “reduced neutropenia”.

And the “delay in tumor growth compared to unconjugated irinotecan” value ([5]; 60 mg/kg (irinotecan content) IV every 4 days)?
Its value is “significantly better”.

And the “delay in tumor growth (anti-tumor activity) compared to the control” value [5]?
Its value is “significantly improved when compared to the control”.

And the “plasma levels of SN-38 compared to unmodified irinotecan” value [11]?
Its value is “elevated and sustained over a longer period of time”.

What about the “Exposure (AUC) of Irinotecan, Plasma” value [6] of the same compound?
The value was 1.5 µg·days/mL.

And the “Exposure (AUC) of PEG-Irinotecan, Plasma” value [6]?
The value was 2143 µg·days/mL.

What about the “Exposure (AUC) of PEG-SN38, Plasma” value [6] of the same compound?
The value was 784 µg·days/mL.

What about the “Exposure (AUC) of SN38, Plasma” value [6] of the same compound?
Its value is 5.8 µg·days/mL.

And the “SN38 levels and AUCs after PEG-Irinotecan” value [12]?
The value was “very high AUCs”.

What about the “exposure to SN-38 in colorectal tumors in comparison to irinotecan” value [13] of the same compound?
The value was “two to three times logarithmic increase”.

And the “complete tumor regression (animals)” value ([7]; HT29, 90 mg/kg dose, q4 d×3)?
Its value is 3/10.

And the “partial tumor regression (animals)” value ([7]; HT29, 90 mg/kg dose, q4 d×3)?
The value was 1/10.

What about the Tumor growth delay ([7]; q4 d×3) of the same compound?
Its Tumor growth delay is 20.9 to 60.2 days.

And the “tumor growth inhibition compared to irinotecan” value ([7]; HT29 human colorectal tumor xenograft model)?
The value was “more effectively than irinotecan”.

What about the tolerability [7] of the same compound?
The tolerability was “well tolerated”.

What about the “diarrhea episodes compared to irinotecan” value [14] of the same compound?
Its value is “fewer diarrhea episodes”.

What about the “Exposure (AUC) of Irinotecan, Plasma” value [8] of the same compound?
Its value is 2.0 µg·days/mL.

What about the “Exposure (AUC) of PEG-Irinotecan, Plasma” value [8] of the same compound?
Its value is 1213 µg·days/mL.

What about the “Exposure (AUC) of PEG-SN38, Plasma” value [8] of the same compound?
The value was 229 µg·days/mL.

And the “Exposure (AUC) of SN38, Plasma” value [8]?
The value was 2.6 µg·days/mL.

What about the “t½ of PEG-Irinotecan, species comparison” value (in vivo) of the same compound?
Its value is “Dog > rat =”.

And the “exposure to irinotecan and SN38 vs dosing with irinotecan per se” value (single dose, all species examined)?
Its value is “sustained and greater exposure”.

And the “AUC of PEG-Irinotecan, species comparison” value [15]?
The value was “mouse < rat < dog”.

And the “AUC of SN38, species comparison” value [15]?
Its value is “mouse >> rat >> dog”.

What about the “Cmax of PEG-Irinotecan, species comparison” value [15] of the same compound?
Its value is “mouse < rat < dog”.

And the “Cmax of SN38, species comparison” value [15]?
The value was “Mouse >> rat >> dog”.

Source: patent US10463659B2, “Multi-arm polymer prodrugs” (priority 2003, dated 2019)
